Results published in the NIST ThermoML archive (doi:10.1021/je101144k).
± gives the expanded uncertainty stated by the source.

Tests used:
[1] = wn = mass fraction of the nth substance listed; details: for surface tension liquid-gas: Maximal bubble pressure; for mass density / viscosity: 101 kPa, Liquid; for mass density: Pycnometric method
[2] = molar heat capacity at constant pressure; wn = mass fraction of the nth substance listed; details: 101 kPa, Liquid, Small sample (50 mg) DSC

N[C@@H](CO)C(=O)[O-].[K+] [potassium L-serinate] + O
Details	mass density, [1] [kg/m3]	molar heat capacity at constant pressure, [2] [J/K/mol]	surface tension liquid-gas, [1] [mN/m]	viscosity, [1] [mPa·s]
298.15 K, w1 = 0.072	1034.7 ± 0.9	–	73.2 ± 0.6	1.121 ± 0.034
298.15 K, w1 = 0.143	1068.7 ± 1.1	–	74.1 ± 0.6	1.372 ± 0.039
298.15 K, w1 = 0.286	1137 ± 1.6	–	77.9 ± 0.7	1.913 ± 0.052
298.15 K, w1 = 0.43	1201.2 ± 2.2	–	80.4 ± 0.8	2.757 ± 0.077
298.15 K, w1 = 0.573	1263.5 ± 2.8	–	82.2 ± 0.8	4.202 ± 0.12
303.15 K, w1 = 0.072	1033.1 ± 0.9	74.59 ± 1.7	–	1.032 ± 0.032
303.15 K, w1 = 0.143	1066.7 ± 1.1	76.59 ± 1.9	–	1.261 ± 0.037
303.15 K, w1 = 0.286	1134.4 ± 1.7	80.47 ± 1.9	–	1.736 ± 0.048
303.15 K, w1 = 0.43	1198.8 ± 2.2	88.33 ± 2	–	2.485 ± 0.069
303.15 K, w1 = 0.573	1260.5 ± 2.8	98.9 ± 2.2	–	3.685 ± 0.1
308.15 K, w1 = 0.072	–	75.17 ± 1.7	–	–
308.15 K, w1 = 0.143	–	77.62 ± 1.9	–	–
308.15 K, w1 = 0.286	–	81.19 ± 1.9	–	–
308.15 K, w1 = 0.43	–	88.91 ± 2	–	–
308.15 K, w1 = 0.573	–	99.62 ± 2.2	–	–
313.15 K, w1 = 0.072	1028.8 ± 0.9	75.56 ± 1.7	–	0.87 ± 0.029
313.15 K, w1 = 0.143	1061.9 ± 1.1	78.03 ± 1.9	–	1.043 ± 0.032
313.15 K, w1 = 0.286	1129.1 ± 1.6	81.67 ± 1.9	–	1.402 ± 0.041
313.15 K, w1 = 0.43	1193.1 ± 2.2	89.77 ± 2	–	1.996 ± 0.057
313.15 K, w1 = 0.573	1254.4 ± 2.8	100.35 ± 2.5	–	2.927 ± 0.084
318.15 K, w1 = 0.072	–	76.13 ± 1.7	–	–
318.15 K, w1 = 0.143	–	78.65 ± 1.9	–	–
318.15 K, w1 = 0.286	–	82.15 ± 1.9	–	–
318.15 K, w1 = 0.43	–	90.35 ± 2	–	–
318.15 K, w1 = 0.573	–	101.07 ± 2.5	–	–
323.15 K, w1 = 0.072	1024.6 ± 0.9	76.52 ± 1.7	–	0.73 ± 0.026
323.15 K, w1 = 0.143	1056.9 ± 1.1	79.06 ± 1.9	–	0.896 ± 0.029
323.15 K, w1 = 0.286	1123.8 ± 1.6	82.63 ± 1.9	–	1.14 ± 0.035
323.15 K, w1 = 0.43	1187.5 ± 2.2	91.22 ± 2	–	1.767 ± 0.052
323.15 K, w1 = 0.573	1248.5 ± 2.8	101.43 ± 2.5	–	2.556 ± 0.073
328.15 K, w1 = 0.072	–	76.9 ± 1.7	–	–
328.15 K, w1 = 0.143	–	79.47 ± 1.9	–	–
328.15 K, w1 = 0.286	–	83.35 ± 1.9	–	–
328.15 K, w1 = 0.43	–	91.79 ± 2	–	–
328.15 K, w1 = 0.573	–	102.15 ± 2.5	–	–
333.15 K, w1 = 0.072	1019.1 ± 0.9	77.29 ± 1.7	–	0.645 ± 0.024
333.15 K, w1 = 0.143	1051.5 ± 1.1	80.09 ± 1.9	–	0.806 ± 0.028
333.15 K, w1 = 0.286	1118 ± 1.6	83.83 ± 1.9	–	0.989 ± 0.032
333.15 K, w1 = 0.43	1181.6 ± 2.2	92.37 ± 2	–	1.56 ± 0.047
333.15 K, w1 = 0.573	1242.3 ± 2.8	102.51 ± 2.5	–	2.278 ± 0.066
338.15 K, w1 = 0.072	–	77.67 ± 1.7	–	–
338.15 K, w1 = 0.143	–	80.5 ± 1.9	–	–
338.15 K, w1 = 0.286	–	84.31 ± 1.9	–	–
338.15 K, w1 = 0.43	–	92.95 ± 2	–	–
338.15 K, w1 = 0.573	–	102.87 ± 2.5	–	–
343.15 K, w1 = 0.072	1013.9 ± 1	78.06 ± 1.7	–	0.564 ± 0.023
343.15 K, w1 = 0.143	1046.3 ± 1.1	81.12 ± 1.9	–	0.671 ± 0.025
343.15 K, w1 = 0.286	1112.5 ± 1.6	84.79 ± 1.9	–	0.855 ± 0.029
343.15 K, w1 = 0.43	1175.9 ± 2.2	93.24 ± 2	–	1.423 ± 0.044
343.15 K, w1 = 0.573	1236.3 ± 2.7	103.23 ± 2.5	–	2.063 ± 0.06
348.18 K, w1 = 0.072	–	78.25 ± 1.7	–	–
348.18 K, w1 = 0.143	–	81.53 ± 1.9	–	–
348.18 K, w1 = 0.286	–	85.27 ± 1.9	–	–
348.18 K, w1 = 0.43	–	93.81 ± 2.3	–	–
348.18 K, w1 = 0.573	–	103.23 ± 2.5	–	–
353.15 K, w1 = 0.072	1007.8 ± 1	78.44 ± 1.7	–	0.494 ± 0.022
353.15 K, w1 = 0.143	1039.6 ± 1.1	81.74 ± 1.9	–	0.564 ± 0.023
353.15 K, w1 = 0.286	1106 ± 1.7	85.51 ± 1.9	–	0.732 ± 0.027
353.15 K, w1 = 0.43	1169.6 ± 2.2	94.1 ± 2.3	–	1.255 ± 0.041
353.15 K, w1 = 0.573	1229.6 ± 2.7	104.68 ± 2.5	–	1.919 ± 0.058
